ChEMBL document CHEMBL2069285, “Synthesis of N-(1-methyl-1H-indol-3-yl)methyleneamines and 3,3-diaryl-4-(1-methyl-1H-indol-3-yl)azetidin-2-ones as potential antileishmanial agents” (Bioorg Med Chem Lett, 2012)
≈ marks a conversion by molar mass, not a printed value.

System: Leishmania major
Assay: Antileishmanial activity against promastigotes of Leishmania major after 72 hrs by neubauer counting chamber analysis
Format: functional, organism-based

`Cc1ccc(C2(c3ccc(C)cc3)C(=O)N(c3ccccc3)C2c2cn(C)c3ccccc23)cc1` (stereo unspecified) and `Cc1ccc(N2C(=O)C(c3ccc(C)cc3)(c3ccc(C)cc3)C2c2cn(C)c3ccccc23)cc1` (stereo unspecified) are within 1.5-fold of each other in IC50: 0.56 mg/L (≈ 1.23 µM) for the first, 0.6 mg/L (≈ 1.27 µM) for the second.

`Cn1cc(/C=N/C(c2ccccc2)c2ccccc2)c2ccccc21` and `Cn1cc(/C=N/c2ccccc2)c2ccccc21` are within 1.5-fold of each other in IC50: 0.6 mg/L (≈ 1.85 µM) for the first, 0.76 mg/L (≈ 3.24 µM) for the second.

`CCOc1ccc(N2C(=O)C(c3ccccc3)(c3ccccc3)C2c2cn(C)c3ccccc23)cc1` (stereo unspecified) and `Cc1ccc(N2C(=O)C(c3ccccc3)(c3ccccc3)C2c2cn(C)c3ccccc23)cc1` (stereo unspecified) are within 1.5-fold of each other in IC50: 0.56 mg/L (≈ 1.18 µM) for the first, 0.59 mg/L (≈ 1.33 µM) for the second.

`CCOc1ccc(/N=C/c2cn(C)c3ccccc23)cc1` and `COc1ccc(/N=C/c2cn(C)c3ccccc23)cc1` are within 1.5-fold of each other in IC50: 0.88 mg/L (≈ 3.16 µM) for the first, 0.92 mg/L (≈ 3.48 µM) for the second.

`Cc1ccccc1/N=C/c1cn(C)c2ccccc12` and `Cc1ccc(/N=C/c2cn(C)c3ccccc23)cc1` are within 1.5-fold of each other in IC50: 0.57 mg/L (≈ 2.3 µM) for the first, 0.66 mg/L (≈ 2.66 µM) for the second.

`Cn1cc(C2N(c3ccccc3)C(=O)C2(c2ccccc2)c2ccccc2)c2ccccc21` (stereo unspecified) and `Cn1cc(C2N(c3ccc(Cl)cc3)C(=O)C2(c2ccccc2)c2ccccc2)c2ccccc21` (stereo unspecified) are within 1.5-fold of each other in IC50: 0.6 mg/L (≈ 1.4 µM) for the first, 0.76 mg/L (≈ 1.64 µM) for the second.

`Cn1cc(/C=N/Cc2ccccc2)c2ccccc21` and `Cn1cc(/C=N/c2ccc(Cl)cc2)c2ccccc21` are within 1.5-fold of each other in IC50: 0.71 mg/L (≈ 2.86 µM) for the first, 0.58 mg/L (≈ 2.16 µM) for the second.

`CCOc1ccc(N2C(=O)C(c3ccc(C)cc3)(c3ccc(C)cc3)C2c2cn(C)c3ccccc23)cc1` (stereo unspecified) and `Cc1ccc(C2(c3ccc(C)cc3)C(=O)N(c3ccc(Cl)cc3)C2c2cn(C)c3ccccc23)cc1` (stereo unspecified) are within 1.5-fold of each other in IC50: 0.63 mg/L (≈ 1.26 µM) for the first, 0.57 mg/L (≈ 1.16 µM) for the second.
